Test results reported in PubChem BioAssay AID330 (DTP/NCI, 2004).
Values joined by “and” are separate entries in the source; they are usually repeats but may differ in a detail not shown here. Equal entries are not always repeated. Inconclusive results and toxic doses are left out.

Test system: P388 leukemia ip, CD2F1 mice, survival T/C
Test: NCI In Vivo Anticancer Drug Screen. Data for tumor model P388 Leukemia (intraperitoneal) in CD2F1 (CDF1) mice
Details: endpoint: median survival time, higher = longer survival
How it was run: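 Mice carrying the transplanted tumor received test compound or vehicle. Survival was recorded in each group, and the value is the treated-group measurement divided by that of the vehicle-treated control group.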

[1] = dose: 100.0 mg/kg/injection, schedule: Q04DX003 (ip), vehicle: suspension in saline
[2] = dose: 100.0 mg/kg/injection, schedule: Q01DX009 (ip), vehicle: saline with Tween-80
[3] = dose: 200.0 mg/kg/injection, schedule: Q01DX009 (ip), vehicle: saline with Tween-80
[4] = dose: 50.0 mg/kg/injection, schedule: Q01DX005 (ip), vehicle: Klucel (hydroxypropylcellulose) (HPC)
[5] = dose: 12.5 mg/kg/injection, schedule: Q01DX009 (ip), vehicle: Klucel (hydroxypropylcellulose) (HPC)
[6] = dose: 60.0 mg/kg/injection, schedule: Q01DX005 (ip), vehicle: Klucel (hydroxypropylcellulose) (HPC)
[7] = dose: 120.0 mg/kg/injection, schedule: Q01DX005 (ip), vehicle: Klucel (hydroxypropylcellulose) (HPC)
[8] = dose: 240.0 mg/kg/injection, schedule: Q01DX005 (ip), vehicle: Klucel (hydroxypropylcellulose) (HPC)
[9] = dose: 25.0 mg/kg/injection, schedule: Q04DX002 (ip), vehicle: saline with Tween-80
[10] = dose: 50.0 mg/kg/injection, schedule: Q04DX002 (ip), vehicle: saline with Tween-80
[11] = dose: 100.0 mg/kg/injection, schedule: Q04DX002 (ip), vehicle: saline with Tween-80
[12] = dose: 50.0 mg/kg/injection, schedule: Q01DX009 (ip), vehicle: saline with Tween-80

N=C(N)c1ccc2[nH]c(/C=C/c3cc4ccc(C(=N)N)cc4o3)cc2c1
T/C [1]: 170 % of control

OC1(c2ccccc2)CSC2=Nc3ccccc3C3CCN1N23 (stereo not given)
T/C (dose: 12.5 mg/kg/injection, schedule: Q01DX009 (ip), vehicle: saline with Tween-80): 108 % of control and 87 % of control | T/C [2]: 122 % of control and 95 % of control | T/C [3]: 99 % of control

O=S(=O)(c1cccc(N=C=S)c1)c1cccc(N=C=S)c1
T/C (dose: 6.25 mg/kg/injection, schedule: Q01DX005 (ip), vehicle: Klucel (hydroxypropylcellulose) (HPC)): 123 % of control | T/C (dose: 12.5 mg/kg/injection, schedule: Q01DX005 (ip), vehicle: Klucel (hydroxypropylcellulose) (HPC)): 117 % of control and 123 % of control | T/C (dose: 25.0 mg/kg/injection, schedule: Q01DX005 (ip), vehicle: Klucel (hydroxypropylcellulose) (HPC)): 123 % of control | T/C [4]: 103 % of control

C=CCNc1ncnc2c1cnn2C
T/C (dose: 50.0 mg/kg/injection, schedule: Q04DX003 (ip), vehicle: saline with Tween-80): 104 % of control | T/C (dose: 100.0 mg/kg/injection, schedule: Q04DX003 (ip), vehicle: saline with Tween-80): 104 % of control

O=C(NN(Cn1c(=S)sc2ccccc21)Cn1c(=S)sc2ccccc21)c1ccncc1
T/C (dose: 3.12 mg/kg/injection, schedule: Q01DX009 (ip), vehicle: Klucel (hydroxypropylcellulose) (HPC)): 105 % of control and 98 % of control | T/C (dose: 6.25 mg/kg/injection, schedule: Q01DX009 (ip), vehicle: Klucel (hydroxypropylcellulose) (HPC)): 93 % of control and 94 % of control | T/C [5]: 88 % of control and 92 % of control

CSc1nc(=O)n(CCC#N)nc1SC
T/C [6]: 98 % of control | T/C [7]: 92 % of control | T/C [8]: 92 % of control

Cc1c(C)c2c(=O)c3ccccc3[nH]c2c2ccccc12
T/C [4]: 108 % of control | T/C (dose: 100.0 mg/kg/injection, schedule: Q01DX005 (ip), vehicle: Klucel (hydroxypropylcellulose) (HPC)): 98 % of control | T/C (dose: 200.0 mg/kg/injection, schedule: Q01DX005 (ip), vehicle: Klucel (hydroxypropylcellulose) (HPC)): 109 % of control

CCCCCCCC/C=C\C(O)=C1\C(=O)NC(CCCNC(=O)OCc2ccccc2)C1=O (stereo not given)
T/C [9]: 100 % of control | T/C [10]: 100 % of control | T/C [11]: 86 % of control | T/C (dose: 200.0 mg/kg/injection, schedule: Q04DX002 (ip), vehicle: saline with Tween-80): 91 % of control | T/C (dose: 400.0 mg/kg/injection, schedule: Q04DX002 (ip), vehicle: saline with Tween-80): 103 % of control

CCCCNC1CC(OC2CC(O)(C(C)=O)Cc3c(O)c4c(c(O)c32)C(=O)c2c(OC)cccc2C4=O)OC(C)C1O (stereo not given)
T/C (dose: 2.0 mg/kg/injection, schedule: Q01DX009 (ip), vehicle: water): 102 % of control | T/C (dose: 4.0 mg/kg/injection, schedule: Q01DX009 (ip), vehicle: water): 100 % of control | T/C (dose: 8.0 mg/kg/injection, schedule: Q01DX009 (ip), vehicle: water): 118 % of control | T/C (dose: 16.0 mg/kg/injection, schedule: Q01DX009 (ip), vehicle: water): 118 % of control

Clc1ccc(CN2COc3c(ccc4ccccc34)C2)cc1
T/C (dose: 100.0 mg/kg/injection, schedule: Q04DX003 (ip), vehicle: Klucel (hydroxypropylcellulose) (HPC)): 103 % of control | T/C (dose: 200.0 mg/kg/injection, schedule: Q04DX003 (ip), vehicle: Klucel (hydroxypropylcellulose) (HPC)): 94 % of control | T/C (dose: 400.0 mg/kg/injection, schedule: Q04DX003 (ip), vehicle: Klucel (hydroxypropylcellulose) (HPC)): 94 % of control

Cc1cc(N=[N+]=[N-])c2ccccc2n1
T/C (dose: 60.0 mg/kg/injection, schedule: Q01DX005 (ip), vehicle: saline with Tween-80): 105 % of control | T/C (dose: 120.0 mg/kg/injection, schedule: Q01DX005 (ip), vehicle: saline with Tween-80): 94 % of control

CCCC(C)C(=O)N(C(C)=O)c1ccc(Cl)c(Cl)c1 (stereo not given)
T/C [12]: 103 % of control | T/C [2]: 103 % of control | T/C [3]: 110 % of control

O=C1S/C(=C2\C(=O)N(CN3CCCCC3)c3ccccc32)C(=O)N1CN1CCCCC1
T/C [6]: 99 % of control | T/C [7]: 96 % of control | T/C [8]: 92 % of control

O=C(/C=C/c1ccco1)c1ccc(O)c(C(=O)O)c1
T/C (dose: 25.0 mg/kg/injection, schedule: Q01DX009 (ip), vehicle: saline with Tween-80): 99 % of control | T/C [12]: 105 % of control | T/C [2]: 102 % of control

O=C1CSCC(=O)OCCOCCOCCO1
T/C [1]: 104 % of control | T/C (dose: 200.0 mg/kg/injection, schedule: Q04DX003 (ip), vehicle: suspension in saline): 101 % of control | T/C (dose: 400.0 mg/kg/injection, schedule: Q04DX003 (ip), vehicle: suspension in saline): 101 % of control

CC(C)=NNc1cc(N)nc2c1ncn2C1OC(CO)C(O)C1O (stereo not given)
T/C (dose: 12.5 mg/kg/injection, schedule: Q01DX005 (ip), vehicle: water): 97 % of control | T/C (dose: 25.0 mg/kg/injection, schedule: Q01DX005 (ip), vehicle: water): 94 % of control | T/C (dose: 50.0 mg/kg/injection, schedule: Q01DX005 (ip), vehicle: water): 98 % of control | T/C (dose: 100.0 mg/kg/injection, schedule: Q01DX005 (ip), vehicle: water): 96 % of control | T/C (dose: 200.0 mg/kg/injection, schedule: Q01DX005 (ip), vehicle: water): 106 % of control

CCCCCCCC(=O)OC(C)C1/C=C/C=C\C(=O)O[C@@H]2C[C@H]3OC4C5OC5(C)CCC4(COC(=O)C4O[C@@]4(C)C(OC(=O)CCCCCCC)CO1)[C@]2(C)[C@]31CO1 (stereo not given in full)
T/C (dose: 1.25 mg/kg/injection, schedule: Q01DX009 (ip), vehicle: Klucel (hydroxypropylcellulose) (HPC)): 102 % of control | T/C (dose: 2.5 mg/kg/injection, schedule: Q01DX009 (ip), vehicle: Klucel (hydroxypropylcellulose) (HPC)): 106 % of control | T/C (dose: 5.0 mg/kg/injection, schedule: Q01DX009 (ip), vehicle: Klucel (hydroxypropylcellulose) (HPC)): 99 % of control and 106 % of control | T/C (dose: 10.0 mg/kg/injection, schedule: Q01DX009 (ip), vehicle: Klucel (hydroxypropylcellulose) (HPC)): 98 % of control and 101 % of control | T/C (dose: 20.0 mg/kg/injection, schedule: Q01DX009 (ip), vehicle: Klucel (hydroxypropylcellulose) (HPC)): 110 % of control | T/C (dose: 40.0 mg/kg/injection, schedule: Q01DX005 (ip), vehicle: Klucel (hydroxypropylcellulose) (HPC)): 90 % of control | T/C (dose: 40.0 mg/kg/injection, schedule: Q01DX009 (ip), vehicle: Klucel (hydroxypropylcellulose) (HPC)): 99 % of control | T/C (dose: 80.0 mg/kg/injection, schedule: Q01DX005 (ip), vehicle: Klucel (hydroxypropylcellulose) (HPC)): 90 % of control | T/C (dose: 150.0 mg/kg/injection, schedule: Q01DX005 (ip), vehicle: Klucel (hydroxypropylcellulose) (HPC)): 91 % of control | T/C (dose: 160.0 mg/kg/injection, schedule: Q01DX005 (ip), vehicle: Klucel (hydroxypropylcellulose) (HPC)): 108 % of control | T/C (dose: 300.0 mg/kg/injection, schedule: Q01DX005 (ip), vehicle: Klucel (hydroxypropylcellulose) (HPC)): 100 % of control

CC(/C=N/Nc1ccccc1)=N\N=c1/scc(-c2ccccc2)n1Cc1ccccc1
T/C (dose: 100.0 mg/kg/injection, schedule: Q01DX001 (ip), vehicle: saline with Tween-80): 93 % of control | T/C (dose: 200.0 mg/kg/injection, schedule: Q01DX001 (ip), vehicle: saline with Tween-80): 97 % of control | T/C (dose: 400.0 mg/kg/injection, schedule: Q01DX001 (ip), vehicle: saline with Tween-80): 93 % of control

COc1cc2nc3cc([N+](=O)[O-])ccc3c(Cl)c2cc1OC
T/C (dose: 50.0 mg/kg/injection, schedule: Q01DX005 (ip), vehicle: saline with Tween-80): 99 % of control | T/C (dose: 100.0 mg/kg/injection, schedule: Q01DX005 (ip), vehicle: saline with Tween-80): 101 % of control | T/C (dose: 200.0 mg/kg/injection, schedule: Q01DX005 (ip), vehicle: saline with Tween-80): 89 % of control

COC1NC(=O)Oc2c(F)cccc21 (stereo not given)
T/C [5]: 100 % of control | T/C (dose: 25.0 mg/kg/injection, schedule: Q01DX009 (ip), vehicle: Klucel (hydroxypropylcellulose) (HPC)): 95 % of control | T/C (dose: 50.0 mg/kg/injection, schedule: Q01DX009 (ip), vehicle: Klucel (hydroxypropylcellulose) (HPC)): 99 % of control | T/C (dose: 100.0 mg/kg/injection, schedule: Q01DX009 (ip), vehicle: Klucel (hydroxypropylcellulose) (HPC)): 95 % of control | T/C (dose: 200.0 mg/kg/injection, schedule: Q01DX009 (ip), vehicle: Klucel (hydroxypropylcellulose) (HPC)): 104 % of control

Cc1c2cnccc2c(C)c2c1c1ccccc1n2CCCCCCCCCCn1c2ccccc2c2c(C)c3cnccc3c(C)c21
T/C [9]: 98 % of control | T/C [10]: 92 % of control | T/C [11]: 89 % of control
